In article PMC4994063, “Harnessing Fluorine–Sulfur Contacts and Multipolar Interactions for the Design of p53 Mutant Y220C Rescue Drugs” (ACS Chemical Biology, 2016):
Several values for one entry are separate records, joined by “and”; a condition that tells them apart may be missing. Equal values may be shown once. Read-outs that look alike come from different tables or passages of the source.

Key:
p53-Y220C DBD [1] = biological target: T1, p53-Y220C DBD (Homo sapiens, UniProt P04637, M133L/N239Y/N268D/V203A/Y220C); set-up: method as in Boeckler et al. (24); settings: data taken from the literature; ref Boeckler et al. (24); read-out: ITC KD; cited from earlier work
T1 construct: Stabilized p53-Y220C DBD (residues 94–312) was expressed and purified as previously described; made in house

[2] = biological target: T2, p53-Y220C DNA-binding domain (DBD) (Homo sapiens, UniProt P04637, M133L/N239Y/N268D/V203A/Y220C); assay: Differential scanning fluorimetry (DSF), stabilization of p53-Y220C DBD; settings: 8 μM stabilized p53-Y220C DBD, 25 mM KPi pH 7.2, 5% DMSO, triplicate; for DSF ΔTm at 125 μM: compound 125 μM; for ΔTm at 125 µM: pH 7.2, compound 125 μM
T2 construct: Stabilized p53-Y220C DBD (residues 94–312) was expressed and purified as previously described; made in house
Experimental: We tested […]083 (1) and analogues 2-6 for their stabilization of the p53-Y220C DNA-binding domain (DBD) using differential scanning fluorimetry (DSF; Table 1). The N-2,2,2-trifluoroethyl substituted carbazoles 4 and 6 increased stability of the p53-Y220C DBD by 1.2 K at a compound concentration of 125 μM, showing a clear improvement over their N-ethyl substituted counterparts […]083 (1) and 5 (ΔTm = 0.8 K and ΔTm = 0.6 K, respectively). […] DSF was performed as described.[26] Briefly, melting temperatures (Tm) were determined using 8 μM protein (stabilized p53-Y220C DBD) and 10 × SYPRO orange (Life Technologies) in a 25 mM KPi (pH 7.2), 150 mM NaCl, and 1 mM TCEP assay buffer at a final DMSO concentration of 5% (v/v). ΔTm values were calculated as ΔTm= Tm (protein + compound) - Tm (protein)). All samples were measured in triplicate.

p53-Y220C DBD [3] = biological target: T1, p53-Y220C DBD; assay: Isothermal titration calorimetry (ITC); assay type: binding; settings: for Kd: 50 μM protein, 25 mM KPi pH 7.2, 150 mM NaCl, 1 mM TCEP, 5% DMSO; for increase in affinity (ITC KD) compared to the nonfluorinated parent compounds (1 and 5): 4 vs 1, 6 vs 5; for improvement of free energy of binding compared with parent compounds: at 293 K, vs PhiKan083 (1) and 5
Experimental: We tested PhiKan083 (1) and analogues 2–6 for their stabilization of the p53-Y220C DNA-binding domain (DBD) using differential scanning fluorimetry (DSF; Table 1). The N-2,2,2-trifluoroethyl substituted carbazoles 4 and 6 increased stability of the p53-Y220C DBD by 1.2 K at a compound concentration of 125 μM, showing a clear improvement over their N-ethyl substituted counterparts PhiKan083 (1) and 5 (ΔTm = 0.8 K and ΔTm = 0.6 K, respectively).
ITC experiments were conducted as described.[26] Samples for the cell unit contained 50 μM protein in a 25 mM KPi (pH 7.2), 150 mM NaCl, 1 mM TCEP, and 5% (v/v) DMSO assay buffer. The syringe contained 2–5 mM compound in the same assay buffer.

Structure (SMILES)	DSF ΔTm at 125 μM [2] [K]	ΔTm at 125 µM [2] [°C]	Kd (p53-Y220C DBD [3])	ligand efficiency (LE) (p53-Y220C DBD [3]) [kcal mol^–1 atom^–1]	increase in affinity (ITC KD) compared to the nonfluorinated parent compounds (1 and 5) (p53-Y220C DBD [3]) [fold]	improvement of free energy of binding compared with parent compounds (p53-Y220C DBD [3])	drop in affinity due to additional methyl group at the amine (p53-Y220C DBD [3]; 5 vs 1) [%]	Kd (p53-Y220C DBD [1]) [µM]
CCn1c2ccccc2c2cc(CNC)ccc21 [Compound 1, 1-(9-ethyl-9H-carbazole-3-yl)-N-methylmethanamine]								124
CNCc1ccc2c(c1)c1ccccc1n2CCF [Compound 2, 1-(9-(2-Fluoroethyl)-9H-carbazol-3-yl)-N-methylmethanamine]	0.4	0.3	138 µM					
CNCc1ccc2c(c1)c1ccccc1n2CC(F)F [Compound 3, 1-(9-(2,2-Difluoroethyl)-9H-carbazol-3-yl)-N-methylmethanamine]	0.3	0.4	101 µM					
CNCc1ccc2c(c1)c1ccccc1n2CC(F)(F)F [Compound 4, 1-(9-(2,2,2-Trifluoroethyl)-9H-carbazol-3-yl)-N-methylmethanamine]		1.2	28.3 µM and 28 µM	0.3	5	approximately −0.9 kcal/mol		

Now from value to compound, other results behind:

DSF ΔTm at 125 μM [2] [K]	ΔTm at 125 µM [2] [°C]	Kd (p53-Y220C DBD [3])	ligand efficiency (LE) (p53-Y220C DBD [3]) [kcal mol^–1 atom^–1]	increase in affinity (ITC KD) compared to the nonfluorinated parent compounds (1 and 5) (p53-Y220C DBD [3]) [fold]	improvement of free energy of binding compared with parent compounds (p53-Y220C DBD [3])	drop in affinity due to additional methyl group at the amine (p53-Y220C DBD [3]; 5 vs 1) [%]	Structure (SMILES)	Kd (p53-Y220C DBD [1]) [µM]
	0.6	169 µM				30	CCn1c2ccccc2c2cc(CN(C)C)ccc21 [Compound 5, 1-(9-Ethyl-9H-carbazol-3-yl)-N,N-dimethylmethanamine]	
	1.2	37.2 µM and 37 µM	0.3	5	approximately −0.9 kcal/mol		CN(C)Cc1ccc2c(c1)c1ccccc1n2CC(F)(F)F [Compound 6, 1-(9-(2,2,2-Trifluoroethyl)-9H-carbazol-3-yl)-N,N-dimethylmethanamine]	
